Data taken from ChEMBL document CHEMBL4828738, “Design, synthesis and evaluation of novel 5-phenylthiophene derivatives as potent fungicidal of Candida albicans and antifungal reagents of fluconazole-resistant fungi” (Eur J Med Chem, 2021).
In brackets after ≈: the same amount, converted by molar mass.

What was measured:
Candida albicans [1] = assay: Antifungal activity against fluconazole-resistant Candida albicans 901 assessed as fungal growth inhibition by CLSI protocol based method
Candida albicans [2] = assay: Antifungal activity against fluconazole-resistant Candida albicans 103 assessed as fungal growth inhibition by CLSI protocol based method
Nakaseomyces glabratus = assay: Antifungal activity against Candida glabrata assessed as fungal growth inhibition by CLSI protocol based method; format: functional
Candida albicans [3] = assay: Antifungal activity against fluconazole-resistant Candida albicans 311 assessed as fungal growth inhibition by CLSI protocol based method
Candida albicans [4] = assay: Antifungal activity against fluconazole-resistant Candida albicans 632 assessed as fungal growth inhibition by CLSI protocol based method
Candida tropicalis = assay: Antifungal activity against Candida tropicalis CGMCC 2.3739 assessed as fungal growth inhibition by CLSI protocol based method; format: functional
Candida albicans [5] = assay: Antifungal activity against fluconazole-resistant Candida albicans 904 assessed as fungal growth inhibition by CLSI protocol based method
Candida albicans [6] = assay: Antifungal activity against fluconazole-resistant Candida albicans 100 assessed as fungal growth inhibition by CLSI protocol based method
Candida parapsilosis = assay: Antifungal activity against Candida parapsilosis GIM2.190 assessed as fungal growth inhibition by CLSI protocol based method; format: functional; details: Lodderomyces parapsilosis
Candida albicans [7] = assay: Antifungal activity against Candida albicans CPCC400616 assessed as fungal growth inhibition by CLSI protocol based method; format: functional
Cryptococcus neoformans = assay: Antifungal activity against Cryptococcus neoformans CGMCC2.3161 assessed as fungal growth inhibition by CLSI protocol based method; format: functional
Candida albicans [8] = assay: Antifungal activity against Candida albicans ATCC SC5314 assessed as fungal growth inhibition by CLSI protocol based method; format: functional
Pichia kudriavzevii = assay: Antifungal activity against Candida krusei GIM2.1 assessed as fungal growth inhibition by CLSI protocol based method; format: functional

Structure (SMILES)	MIC (Candida albicans [1]) [µg/mL]	MIC (Candida albicans [2]) [µg/mL]	MIC (Nakaseomyces glabratus) [µg/mL]	MIC (Candida albicans [3]) [µg/mL]	MIC (Candida albicans [4]) [µg/mL]	MIC (Candida tropicalis) [µg/mL]	MIC (Candida albicans [5]) [µg/mL]	MIC (Candida albicans [6]) [µg/mL]	MIC (Candida parapsilosis) [µg/mL]	MIC (Candida albicans [7]) [µg/mL]	MIC (Cryptococcus neoformans) [µg/mL]	MIC (Candida albicans [8]) [µg/mL]	MIC (Pichia kudriavzevii) [µg/mL]
COc1ccc(-c2ccc(C(=O)NC(Cn3ccnc3)C(=O)c3ccccc3)s2)cc1 (centres undefined)	2 (≈ 4.63 µM)	4 (≈ 9.27 µM)	> 64	4 (≈ 9.27 µM)	8 (≈ 18.5 µM)	2 (≈ 4.63 µM)	4 (≈ 9.27 µM)	2 (≈ 4.63 µM)	> 64	1 (≈ 2.32 µM)	> 64	0.125 (≈ 0.29 µM)	> 64
O=C(NC(Cn1ccnc1)C(=O)c1ccccc1)c1ccc(-c2cccc(F)c2)s1 (centres undefined)	–	–	> 64	–	–	> 64	–	–	> 64	64 (≈ 153 µM)	> 64	8 (≈ 19.1 µM)	> 64
O=C(NC(Cn1ccnc1)C(=O)c1ccccc1)c1ccc(-c2ccccc2)o1 (centres undefined)	–	–	> 64	–	–	> 64	–	–	> 64	16 (≈ 41.5 µM)	> 64	16 (≈ 41.5 µM)	> 64
O=C(NC(Cn1ccnc1)C(=O)c1ccccc1)c1ccc2ccccc2c1 (centres undefined)	–	–	> 64	–	–	0.5 (≈ 1.35 µM)	–	–	> 64	2 (≈ 5.41 µM)	32 (≈ 86.6 µM)	0.5 (≈ 1.35 µM)	> 64
O=C(NC(Cn1ccnc1)C(=O)c1ccccc1)c1ccc(-c2cccc(Cl)c2)s1 (centres undefined)	–	–	> 64	–	–	32 (≈ 73.4 µM)	–	–	> 64	32 (≈ 73.4 µM)	> 64	16 (≈ 36.7 µM)	> 64
O=C(NC(Cn1ccnc1)C(=O)c1ccccc1)c1ccc(-c2ccccc2Cl)s1 (centres undefined)	–	–	> 64	–	–	> 64	–	–	> 64	> 64	> 64	> 64	> 64
O=C(NC(Cn1ccnc1)C(=O)c1ccccc1)c1ccc(-c2ccsc2)cc1 (centres undefined)	–	–	> 64	–	–	2 (≈ 4.98 µM)	–	–	> 64	2 (≈ 4.98 µM)	8 (≈ 19.9 µM)	1 (≈ 2.49 µM)	16 (≈ 39.9 µM)
O=C(NC(Cn1ccnc1)C(=O)c1ccccc1)c1ccc(-c2ccc(C(F)(F)F)cc2)s1 (centres undefined)	4 (≈ 8.52 µM)	2 (≈ 4.26 µM)	8 (≈ 17 µM)	4 (≈ 8.52 µM)	> 64	0.125 (≈ 0.266 µM)	2 (≈ 4.26 µM)	> 64	4 (≈ 8.52 µM)	2 (≈ 4.26 µM)	> 64	0.125 (≈ 0.266 µM)	16 (≈ 34.1 µM)
O=C(NC(Cn1ccnc1)C(=O)c1ccccc1)c1cnc(-c2ccccc2)o1 (centres undefined)	–	–	> 64	–	–	> 64	–	–	> 64	64 (≈ 166 µM)	> 64	32 (≈ 82.8 µM)	> 64
O=C(NC(Cn1ccnc1)C(=O)c1ccc(F)cc1F)c1ccc(-c2ccc(Cl)cc2)s1 (centres undefined)	–	–	> 64	–	–	> 64	–	–	> 64	> 64	2 (≈ 4.24 µM)	0.5 (≈ 1.06 µM)	> 64
O=C(NC(Cn1ccnc1)C(=O)c1ccccc1)c1ccc(-c2ccccc2)s1 (centres undefined)	4 (≈ 9.96 µM)	4 (≈ 9.96 µM)	2 (≈ 4.98 µM)	8 (≈ 19.9 µM)	8 (≈ 19.9 µM)	1 (≈ 2.49 µM)	4 (≈ 9.96 µM)	4 (≈ 9.96 µM)	0.5 (≈ 1.25 µM)	0.5 (≈ 1.25 µM)	8 (≈ 19.9 µM)	0.5 (≈ 1.25 µM)	32 (≈ 79.7 µM)
O=C(NC(Cn1ccnc1)C(=O)c1ccccc1F)c1ccc(-c2ccc(Cl)cc2)s1 (centres undefined)	2 (≈ 4.41 µM)	4 (≈ 8.81 µM)	> 64	8 (≈ 17.6 µM)	> 64	> 64	> 64	> 64	> 64	0.06 (≈ 0.132 µM)	2 (≈ 4.41 µM)	0.06 (≈ 0.132 µM)	1 (≈ 2.2 µM)
O=C(NC(Cn1ccnc1)C(=O)c1ccccc1)c1ccc(-c2ccc(Cl)cc2Cl)s1 (centres undefined)	–	–	> 64	–	–	> 64	–	–	> 64	> 64	> 64	> 64	> 64
O=C(NC(Cn1ccnc1)C(=O)c1ccccc1)c1nc2ccc(Br)cc2s1 (centres undefined)	–	–	> 64	–	–	> 64	–	–	> 64	> 64	> 64	32 (≈ 70.3 µM)	> 64
O=C(NC(Cn1ccnc1)C(=O)c1ccccc1)c1ccc(-c2ccc(F)cc2F)s1 (centres undefined)	–	–	> 64	–	–	> 64	–	–	> 64	> 64	> 64	8 (≈ 18.3 µM)	> 64
